According to patent publication US20050282755A1, “Compositions having antimicrobial activity and uses thereof” (priority 2004, published 2005):
Values after ≈ are worked out from the molar mass of the structure shown. Read-outs that look alike come from different tables or passages of the source. Non-standard residues stand in square brackets, D forms with d. Residues, ends and D or L forms follow the SMILES beside them. *: point of attachment. Lauroyl = CCCCCCCCCCCC(=O)*

Tests used:
Salmonella dublin (Lane) [1] = details: pH 7.4
[2] = system: Propionibacterium acnes ATCC 6919; type: cell-based
Protocol: A second method that was used to determine the MIC in P. acnes for selected antimicrobial agents was a non-standard broth microdilution method that used an assay buffer composed of reinforced Clostridial broth. Briefly, a log-phase bacterial culture of P. acnes was used to inoculate wells of a 96-well plate so that the final inoculum for each well contained 5×10^5 to 1×10^6 CFU/milliliter. […] Plates were incubated for 48-72 hours at 37° C. in a GasPak anaerobic chamber. The lowest concentration of peptide that contained no visible growth as evidenced by a lack of turbidity when compared to the control (no peptide) was determined as the MIC. MIC values that utilized this method of MIC determination are indicated in Table 9 with a subscript letter “d.”

[3] = system: Staphylococcus aureus ATCC 29213; details: ATCC 29213, pH 7.4
Salmonella dublin (Lane) [4] = assay: MIC, NCCLS M7-A6 broth microdilution (Table 9, no superscript); type: cell-based
Outline: (§1)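 CAMHB microdilution; final inoculum 5×10^5–1×10^6 CFU/milliliter from log-phase culture; overnight, 37° C; MIC = lowest peptide conc. without visible growth (turbidity) vs no-peptide control.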

[5] = system: Escherichia coli ATCC 25922; assay: as above; type: cell-based; details: ATCC 25922
Outline: as §1

[6] = system: Staphylococcus epidermidis ATCC 12228; assay: as above; type: cell-based; details: ATCC 12228
Outline: as §1

[7] = system: Pseudomonas aeruginosa ATCC 27853; assay: as above; type: cell-based; details: ATCC 27853
Outline: as §1

[8] = system: Staphylococcus aureus ATCC 29213; assay: MIC, NCCLS M7-A6 broth microdilution, cation-adjusted Mueller Hinton broth (Table 9, no superscript); type: cell-based; details: ATCC 29213
Outline: as §1

[9] = system: Candida albicans ATCC 18804; assay: MIC in yeasts, NCCLS M27-A2 broth microdilution, RPMI 1640 (Table 9, letter e); type: cell-based; details: ATCC 18804
Outline: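 Broth microdilution per NCCLS M27-A2 in RPMI 1640 with glutamine and phenol red, final inoculum 0.5×10^3–2.5×10^3 CFU/milliliter. Incubated 24 to 48 hours at 37° C; MIC is the lowest peptide concentration with no visible growth.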

human red blood cells = type: cell-based; details: red cells of human
Protocol: Hemoglobin-release assays with human red blood cells (RBC) were performed to determine the hemolytic activity of granulysin peptides. Human RBCs (San Diego Blood Bank, San Diego, Calif.) were washed three times in PBS buffer (8 mM Na2HPO4, 1.5 mM KH2PO4, 140 mM NaCl and 2.7 mM KCl, pH 7.4), resuspended in PBS to the concentration of 5% (v/v). The RBC were then exposed to different peptide compositions at various concentrations (100-6.25 micromolar) and incubated at 37° C. for 60 minutes in a total volume of 120 microliters. Every experiment included a negative control without peptide and maximum control treated with 5% TX-100 for complete hemoglobin release. Samples were centrifuged for 1 minute at 13,000 g to remove debris and intact cells. The hemoglobin-containing supernatant was removed and transferred to a microwell plate. Hemoglobin release was quantified at A540 using a Versamax plate reader (Molecular Devices). The degree of hemolysis is expressed as percentage of hemolysis compared to the […], using the following formula: % hemolysis=(sample−neg. control)/(max. control−neg. control)×100.

Row | SMILES | MIC S. dublin (Salmonella dublin (Lane) [1]) | MIC P. acnes [2] | MIC S. aureus [3] | MIC S. dublin (Salmonella dublin (Lane) [4]) | MIC E. coli [5] | MIC S. epidermidis [6] | MIC P. aeruginosa [7] | MIC S. aureus [8] | MIC C. albicans [9] | Hemolytic effect on human red blood cells (human red blood cells; 6.25 Micromolar) | Hemolytic effect on human red blood cells (human red blood cells; 12.5 Micromolar) | Hemolytic effect on human red blood cells (human red blood cells; 25 Micromolar) | Hemolytic effect on human red blood cells (human red blood cells; 50 Micromolar) | Hemolytic effect on human red blood cells (human red blood cells; 100 Micromolar)
1 | CSCC[C@H](NC(=O)[C@H](Cc1ccccc1)NC(=O)[C@H](CC(N)=O)NC(=O)[C@H](CCCNC(=N)N)NC(=O)[C@H](CO)NC(=O)[C@H](Cc1c[nH]c2ccccc12)NC(=O)[C@H](CC(=O)O)NC(=O)[C@H](CCCNC(=N)N)NC(=O)[C@H](Cc1c[nH]c2ccccc12)NC(=O)[C@H](CCCNC(=N)N)NC(=O)[C@H](CO)NC(=O)[C@H](CCCNC(=N)N)NC(=O)CNC(=O)[C@@H](NC(=O)[C@H](CCCNC(=N)N)NC(=O)[C@H](CO)NC(=O)[C@@H](NC(=O)[C@H](CCCNC(=N)N)NC(=O)[C@@H](NC(C)=O)[C@@H](C)O)C(C)C)[C@@H](C)O)C(=O)N[C@@H](CCCNC(=N)N)C(=O)N[C@@H](CCCNC(=N)N)C(=O)N[C@@H](CCCNC(=N)N)C(N)=O [Peptide 13] (Ac-TRVSRTGRSRWRDWSRNFMRRR-NH2) | 25b ug/mL | 25 µg·days/mL | 25b ug/mL | – | – | – | – | – | – | – | – | – | – | –
2 | CSCC[C@@H](NC(=O)[C@@H](Cc1ccccc1)NC(=O)[C@@H](CC(N)=O)NC(=O)[C@@H](CCCNC(=N)N)NC(=O)[C@@H](C)NC(=O)[C@@H](Cc1c[nH]c2ccccc12)NC(=O)[C@@H](CC(=O)O)NC(=O)[C@@H](CCCNC(=N)N)NC(=O)[C@@H](Cc1c[nH]c2ccccc12)NC(=O)[C@@H](CCCNC(=N)N)NC(=O)[C@@H](CO)NC(=O)[C@@H](CCCNC(=N)N)NC(=O)CNC(=O)[C@H](NC(=O)[C@@H](CCCNC(=N)N)NC(=O)[C@@H](C)NC(=O)[C@H](NC(=O)[C@@H](CCCNC(=N)N)NC(=O)[C@H](NC(C)=O)[C@H](C)O)C(C)C)[C@H](C)O)C(=O)N[C@H](CCCNC(=N)N)C(N)=O [Peptide 56, Ac-trvartgrsrwrdwarnfmr-NH2] (Ac-[dT][dR][dV][dA][dR][dT]G[dR][dS][dR][dW][dR][dD][dW][dA][dR][dN][dF][dM][dR]-NH2) | – | 6 µg·days/mL | – | 8 µg/mL (≈ 3.05 µM) | 4 µg/mL (≈ 1.53 µM) | 2 µg/mL (≈ 0.763 µM) | >64 µg/mL | >64 µg/mL | 64e ug/mL | – | – | – | – | –
3 | CCCCCCCCCCCC(=O)N[C@H](C(=O)N[C@@H](CCCNC(=N)N)C(=O)N[C@H](C(=O)N[C@@H](CO)C(=O)N[C@@H](CCCNC(=N)N)C(=O)N[C@H](C(=O)NCC(=O)N[C@@H](CCCNC(=N)N)C(=O)N[C@@H](CO)C(=O)N[C@@H](CCCNC(=N)N)C(=O)N[C@@H](Cc1c[nH]c2ccccc12)C(=O)N[C@@H](CCCNC(=N)N)C(=O)N[C@@H](CC(=O)O)C(=O)N[C@@H](Cc1c[nH]c2ccccc12)C(=O)N[C@@H](CO)C(=O)N[C@@H](CCCNC(=N)N)C(=O)N[C@@H](CC(N)=O)C(=O)N[C@@H](Cc1ccccc1)C(=O)N[C@@H](CCSC)C(=O)N[C@@H](CCCNC(=N)N)C(N)=O)[C@@H](C)O)C(C)C)[C@@H](C)O [Peptide 63] (Lauroyl-TRVSRTGRSRWRDWSRNFMR-NH2) | – | 12.5 µg·days/mL | – | 16 µg/mL (≈ 5.73 µM) | 32 µg/mL (≈ 11.5 µM) | 2 µg/mL (≈ 0.716 µM) | 64 µg/mL (≈ 22.9 µM) | 8 µg/mL (≈ 2.87 µM) | 16e ug/mL | – | – | – | – | –
4 | CCCCCCCCCCCC(=O)N[C@@H](C(=O)N[C@H](CCCNC(=N)N)C(=O)N[C@@H](C(=O)N[C@H](C)C(=O)N[C@H](CCCNC(=N)N)C(=O)N[C@@H](C(=O)NCC(=O)N[C@H](CCCNC(=N)N)C(=O)N[C@H](CO)C(=O)N[C@H](CCCNC(=N)N)C(=O)N[C@H](Cc1c[nH]c2ccccc12)C(=O)N[C@H](CCCNC(=N)N)C(=O)N[C@H](CC(=O)O)C(=O)N[C@H](Cc1c[nH]c2ccccc12)C(=O)N[C@H](C)C(=O)N[C@H](CCCNC(=N)N)C(=O)N[C@H](CC(N)=O)C(=O)N[C@H](Cc1ccccc1)C(=O)N[C@H](CCSC)C(=O)N[C@H](CCCNC(=N)N)C(N)=O)[C@H](C)O)C(C)C)[C@H](C)O [Peptide 77, Lauryl-trvartgrsrwrdwarnfmr-NH2] (Lauroyl-[dT][dR][dV][dA][dR][dT]G[dR][dS][dR][dW][dR][dD][dW][dA][dR][dN][dF][dM][dR]-NH2) | – | 12.5 µg·days/mL | – | 16 µg/mL (≈ 5.8 µM) | – | – | – | 16 µg/mL (≈ 5.8 µM) | 8e ug/mL | – | – | – | – | –
5 | CCCCCCCCCCCC(=O)N[C@@H](C(=O)N[C@H](CCCNC(=N)N)C(=O)N[C@@H](C(=O)N[C@H](CO)C(=O)N[C@H](CCCNC(=N)N)C(=O)N[C@@H](C(=O)NCC(=O)N[C@H](CCCNC(=N)N)C(=O)N[C@H](CO)C(=O)N[C@H](CCCNC(=N)N)C(=O)N[C@H](Cc1c[nH]c2ccccc12)C(=O)N[C@H](CCCNC(=N)N)C(=O)N[C@H](CC(=O)O)C(=O)N[C@H](Cc1c[nH]c2ccccc12)C(=O)N[C@H](CO)C(=O)N[C@H](CCCNC(=N)N)C(=O)N[C@H](CC(N)=O)C(=O)N[C@H](Cc1ccccc1)C(=O)N[C@H](CCSC)C(=O)N[C@H](CCCNC(=N)N)C(=O)N[C@H](C)C(=O)N[C@H](C)C(=O)N[C@@H](CCCCNC(C)=O)C(N)=O)[C@H](C)O)C(C)C)[C@H](C)O [Peptide 85, Lauryl-trvsrtgrsrwrdwsrnfmraaK(Ac)-NH2] | – | – | – | – | 8 µg/mL (≈ 2.58 µM) | 2 µg/mL (≈ 0.644 µM) | >64 µg/mL | – | – | 16% | 26% | 36% | 53% | 83%
6 | CCCCCCCCCCCC(=O)N[C@H](CCCNC(=N)N)C(=O)N[C@H](CO)C(=O)N[C@H](CCCNC(=N)N)C(=O)N[C@H](Cc1c[nH]c2ccccc12)C(=O)N[C@H](CCCNC(=N)N)C(=O)N[C@H](CC(=O)O)C(=O)N[C@H](Cc1c[nH]c2ccccc12)C(=O)N[C@H](CO)C(=O)N[C@H](CCCNC(=N)N)C(=O)N[C@H](CC(N)=O)C(=O)N[C@H](Cc1ccccc1)C(=O)N[C@H](CCSC)C(=O)N[C@H](CCCNC(=N)N)C(N)=O [Peptide 89, Lauryl-rsrwrdwsrnfmr-NH2] (Lauroyl-[dR][dS][dR][dW][dR][dD][dW][dS][dR][dN][dF][dM][dR]-NH2) | – | 25 µg·days/mL | – | 4 µg/mL (≈ 1.97 µM) | – | – | – | 4 µg/mL (≈ 1.97 µM) | 32e ug/mL | – | – | – | – | –
7 | CSCC[C@H](NC(=O)[C@H](Cc1ccccc1)NC(=O)[C@H](CC(N)=O)NC(=O)[C@H](CCCNC(=N)N)NC(=O)[C@H](CO)NC(=O)[C@H](Cc1c[nH]c2ccccc12)NC(=O)[C@H](CC(=O)O)NC(=O)[C@H](CCCNC(=N)N)NC(=O)[C@H](Cc1c[nH]c2ccccc12)NC(=O)[C@H](CCCNC(=N)N)NC(=O)[C@H](CO)NC(=O)[C@H](CCCNC(=N)N)NC(C)=O)C(=O)N[C@@H](CCCNC(=N)N)C(N)=O [Peptide 91, Ac-RSRWRDWSRNFMR-NH2] (Ac-RSRWRDWSRNFMR-NH2) | – | 25 µg·days/mL | – | >64 µg/mL | – | – | – | >64 µg/mL | 16e ug/mL | – | – | – | – | –
8 | CSCC[C@H](NC(=O)[C@H](Cc1ccccc1)NC(=O)[C@H](CC(N)=O)NC(=O)[C@H](CCCNC(=N)N)NC(=O)[C@H](C)NC(=O)[C@@H](NC(=O)[C@H](CC(=O)O)NC(=O)[C@H](CCCNC(=N)N)NC(=O)[C@H](Cc1c[nH]c2ccccc12)NC(=O)[C@H](CCCNC(=N)N)NC(=O)[C@H](CO)NC(=O)[C@H](CCCNC(=N)N)NC(C)=O)C(C)C)C(=O)N[C@@H](CCCNC(=N)N)C(N)=O [Peptide 92, Ac-RSRWRDVARNFMR-NH2] (Ac-RSRWRDVARNFMR-NH2) | – | 25 µg·days/mL | – | >64 µg/mL | – | – | – | >64 µg/mL | 8e ug/mL | – | – | – | – | –
